# Experimental data as given in patent US9198979B2, “Thiazolidine linker for the conjugation of drugs to antibodies” (Philogen S.P.A., priority 2010, dated 2015).
# Like-named read-outs stand apart in the source and are kept apart here.
# Experiments:
# [1] = system: F9 teratocarcinoma cells; assay: In vitro toxicity assay (MTS cell proliferation assay), F9; assay type: cell-based, murine; details: F9, ~72 hours
# Procedure: (§1) For the in vitro toxicity assay 30000 cells/well (final volume 100 μl) were seeded in a 96 well plate with a defined peptide dilution (by adding 1.5 μl of peptide solution to 500 μl of cell suspension) and incubated at 37° C. in 5% CO2.
# (§2) After ˜72 hours, cell viability was measured using the “Cell Titer 96®Aqueous One Solution Cell Proliferation Assay” (Promega), performed according to the manufacturers instruction. Briefly: 20 μl of MTS solution were added to each well, the plate was then incubated at 37° C. for 2 hour. The read out of the assay is the absorbance at 490 nm.
# (§3) The experiments were then extended to F9 and HL60 cells in the same manner.
# Cem-CH2—SH cell killing ability was evaluated by cytotoxicity assays: one non-tumor cell line (human embryonic kidney cells, HEK 293T) and two tumor cell lines, murine F9 teratocarcinoma cells (F9) and human promyelocytic leukemia cells (HL60), were incubated over 3 days with different concentrations of non-modified cemadotin and the derivative Cem-CH2—SH (FIG. 20).
# [2] = system: HL60 cells; assay: In vitro toxicity assay (MTS cell proliferation assay), HL60; assay type: cell-based, human; details: HL60, ~72 hours
# Procedure: as §1, §2, §3
# [3] = system: HEK293T cells; assay: In vitro toxicity assay (MTS cell proliferation assay), HEK293T; assay type: cell-based, human; details: ~72 hours
# Procedure: HEK293T cells were grown in RPMI (Gigbo-Invitrogen) medium supplemented with 10% FCS and antibiotics and maintained at 37° C. in 5% CO2.
# as §1, §2
substance,measurement,setting,value
Cemadotin,cytotoxicity (IC50),[1],sub-nanomolar
same,cytotoxicity (IC50),[2],sub-nanomolar
same,cytotoxicity (IC50),[3],sub-nanomolar
BSA-fluorescein conjugate: BSA conjugated to carboxyfluorescein by the thiazolidine linker,t1/2 thiazolidine (fluorescein release half-life),pH 6.6,37 h
same,t1/2 thiazolidine (fluorescein release half-life),pH 7.4,44 h
